Source: patent US6310091A, “Fungicidal saponin, CAY-1, and isolation thereof from Capsium species fruit” (The United States of America as represented by the …, priority 2000, dated 2001)
Where “and” joins values, the source holds several entries; their conditions need not be identical. Equal values may be shown once. Read-outs that look alike come from different tables or passages of the source.

Assays:
Aspergillus flavus = assay: Fungicidal bioassay on nongerminated and germinating conidia of A. flavus; type: cell-based; conditions: for activity at 2 µM / activity at 3 µM / activity at 4 µM / activity at 5 µM / activity at 7.5 µM / activity at 10 µM / activity at 1 µM / activity at 2.5 µM: read-out: Percent of Mean Control
Description: (§1) 1. Filamentous fungi. Filamentous fungi used in bioassays included Aspergillus flavus, A. fumigatus, A. niger, A. parasiticus and Fusarium oxysporum. The fungicidal properties of CAY-1 for the nongerminated and germinating conidia of these fungi were determined separately as described by De Lucca et al. [Med. Mycol., 36:291-298 (1998)] and De Lucca et al. [Antimicrob. Agents Chemother. 43:371-373 (1999)]. […] Two separate experiments were conducted in each medium (n=8 per medium).
(§2) A suspension of the aforementioned fungi were prepared separately in the appropriate medium. Conidia (10^4 conidia/ml) were used immediately for the nongerminated conidial assays while conidia (10^5 conidia/ml) were incubated for 7.5 hours at 30° C. to obtain germinating conidia. Serial dilutions of CAY-1 were prepared in the appropriate medium (totaling 225 μl) to which was added 25 μl of the conidial suspensions. The control consisted of 225 μl of medium and 25 μl of the conidial suspension. After mixing, the samples were incubated for 30 min (30° C.). Samples were then spread on potato dextrose agar plates which were incubated at 30° C. for 24 hours. Colonies were then enumerated.
(§3) Statistical analyses. ANOVA analyses on ranks for nonparametric data were performed for the bioassays described in this example.

Aspergillus parasiticus = assay: Fungicidal bioassay on nongerminated and germinating conidia of A. parasiticus; type: cell-based; conditions: Aspergillus parasiticus, 0.5 h, read-out: Percent of Mean Control
Description: as §1, §2, §3

CC1CCC2(OC1)OC1CC3C4CCC5CC(OC6OC(CO)C(OC7OC(CO)C(O)C(OC8OC(CO)C(O)C(OC9OC(CO)C(O)C(O)C9O)C8O)C7OC7OC(CO)C(O)C(O)C7O)C(O)C6O)C(O)CC5(C)C4CCC3(C)C1C2C (centres unmarked) [CAY-1]
activity at 2 µM (Aspergillus flavus; Aspergillus flavus, 0.5 h, germinating, 1% PDB, 2.0 μM): 90.1% | activity at 3 µM (Aspergillus flavus; Aspergillus flavus, 0.5 h, germinating, 1% PDB, 3.0 μM): 74.4% | activity at 4 µM (Aspergillus flavus; Aspergillus flavus, 0.5 h, germinating, 1% PDB, 4.0 μM): 54.2% | activity at 5 µM (Aspergillus flavus; Aspergillus flavus, 0.5 h, germinating, 1% PDB, 5.0 μM): 34.9% | activity at 7.5 µM (Aspergillus flavus; Aspergillus flavus, 0.5 h, germinating, 1% PDB, 7.5 μM): 11% | activity at 10 µM (Aspergillus flavus; Aspergillus flavus, 0.5 h, germinating, 1% PDB, 10.0 μM): 8.4% | activity at 1 µM (Aspergillus flavus; Aspergillus flavus, 0.5 h, germinating, RPMI-1640, 1.0 μM): 132% | activity at 2.5 µM (Aspergillus flavus; Aspergillus flavus, 0.5 h, germinating, RPMI-1640, 2.5 μM): 145% | activity at 5 µM (Aspergillus flavus; Aspergillus flavus, 0.5 h, germinating, RPMI-1640, 5.0 μM): 62.9% | activity at 7.5 µM (Aspergillus flavus; Aspergillus flavus, 0.5 h, germinating, RPMI-1640, 7.5 μM): 14% | activity at 10 µM (Aspergillus flavus; Aspergillus flavus, 0.5 h, germinating, RPMI-1640, 10.0 μM): 9% | activity at 2 µM (Aspergillus flavus; Aspergillus flavus, 0.5 h, nongerminated, 1% PDB, 2.0 μM): 102% | activity at 3 µM (Aspergillus flavus; Aspergillus flavus, 0.5 h, nongerminated, 1% PDB, 3.0 μM): 102% | activity at 4 µM (Aspergillus flavus; Aspergillus flavus, 0.5 h, nongerminated, 1% PDB, 4.0 μM): 103% | activity at 5 µM (Aspergillus flavus; Aspergillus flavus, 0.5 h, nongerminated, 1% PDB, 5.0 μM): 104% | activity at 7.5 µM (Aspergillus flavus; Aspergillus flavus, 0.5 h, nongerminated, 1% PDB, 7.5 μM): 106% | activity at 10 µM (Aspergillus flavus; Aspergillus flavus, 0.5 h, nongerminated, 1% PDB, 10.0 μM): 108% | activity at 1 µM (Aspergillus flavus; Aspergillus flavus, 0.5 h, nongerminated, RPMI-1640, 1.0 μM): 88.6% | activity at 2.5 µM (Aspergillus flavus; Aspergillus flavus, 0.5 h, nongerminated, RPMI-1640, 2.5 μM): 92.2% | activity at 5 µM (Aspergillus flavus; Aspergillus flavus, 0.5 h, nongerminated, RPMI-1640, 5.0 μM): 91.7% | activity at 7.5 µM (Aspergillus flavus; Aspergillus flavus, 0.5 h, nongerminated, RPMI-1640, 7.5 μM): 90.7% | activity at 10 µM (Aspergillus flavus; Aspergillus flavus, 0.5 h, nongerminated, RPMI-1640, 10.0 μM): 99.2% | LD95 (concentration lethal to 95% of conidia) (Aspergillus flavus; Aspergillus flavus, 0.5 h, read-out: LD95): 12.5 µM and 15.5 µg/mL | minimal effective concentration (Aspergillus flavus; Aspergillus flavus, 0.5 h, read-out: concentration lethal to germinating conidia): 7.5 µM and 9.3 µg/mL | concentration lethal to germinating conidia (Aspergillus flavus; germinating conidia, RPMI-1640, p=0.0187): 7.5 μM and 9.3 μg/ml | Mean No. of Colonies (Aspergillus flavus; germinating, 1% PDB, 2.0 μM): 139.8 | Mean No. of Colonies (Aspergillus flavus; germinating, 1% PDB, 3.0 μM): 115.4 | Mean No. of Colonies (Aspergillus flavus; germinating, 1% PDB, 4.0 μM): 84.1 | Mean No. of Colonies (Aspergillus flavus; germinating, 1% PDB, 5.0 μM): 54.2 | Mean No. of Colonies (Aspergillus flavus; germinating, 1% PDB, 7.5 μM): 17.1 | Mean No. of Colonies (Aspergillus flavus; germinating, 1% PDB, 10.0 μM): 13.1 | Mean No. of Colonies (Aspergillus flavus; germinating, RPMI-1640, 1.0 μM): 52.6 | Mean No. of Colonies (Aspergillus flavus; germinating, RPMI-1640, 2.5 μM): 57.8 | Mean No. of Colonies (Aspergillus flavus; germinating, RPMI-1640, 5.0 μM): 25.1 | Mean No. of Colonies (Aspergillus flavus; germinating, RPMI-1640, 7.5 μM): 5.6 | Mean No. of Colonies (Aspergillus flavus; germinating, RPMI-1640, 10.0 μM): 3.6 | viability of nongerminated conidia (Aspergillus flavus; nongerminated conidia, either test medium): not affected | Mean No. of Colonies (Aspergillus flavus; nongerminated, 1% PDB, 2.0 μM): 54.4 | Mean No. of Colonies (Aspergillus flavus; nongerminated, 1% PDB, 3.0 μM): 54.8 | Mean No. of Colonies (Aspergillus flavus; nongerminated, 1% PDB, 4.0 μM): 55.2 | Mean No. of Colonies (Aspergillus flavus; nongerminated, 1% PDB, 5.0 μM): 55.7 | Mean No. of Colonies (Aspergillus flavus; nongerminated, 1% PDB, 7.5 μM): 56.9 | Mean No. of Colonies (Aspergillus flavus; nongerminated, 1% PDB, 10.0 μM): 58.0 | Mean No. of Colonies (Aspergillus flavus; nongerminated, RPMI-1640, 1.0 μM): 53.6 | Mean No. of Colonies (Aspergillus flavus; nongerminated, RPMI-1640, 2.5 μM): 55.8 | Mean No. of Colonies (Aspergillus flavus; nongerminated, RPMI-1640, 5.0 μM): 55.5 | Mean No. of Colonies (Aspergillus flavus; nongerminated, RPMI-1640, 7.5 μM): 54.9 | Mean No. of Colonies (Aspergillus flavus; nongerminated, RPMI-1640, 10.0 μM): 60.0 | activity at 5 µM (Aspergillus parasiticus; germinated, RPMI-1640): 56.6% | activity at 10 µM (Aspergillus parasiticus; germinated, RPMI-1640): 17.5% | activity at 15 µM (Aspergillus parasiticus; germinated, RPMI-1640): 12.7% | activity at 20 µM (Aspergillus parasiticus; germinated, RPMI-1640): 8.1% | activity at 5 µM (Aspergillus parasiticus; germinating, 1% PDB): 61.9% | activity at 10 µM (Aspergillus parasiticus; germinating, 1% PDB): 28% | activity at 15 µM (Aspergillus parasiticus; germinating, 1% PDB): 21% | activity at 20 µM (Aspergillus parasiticus; germinating, 1% PDB): 16.5%
